Laboratory results taken from article PMC6072243 (ACS Omega, 2018).

Assays:
p38α MAPK = p38α MAPK (Homo sapiens, UniProt Q16539); assay: p38α MAPK enzyme-linked immunosorbent assay; assay type: biochemical; details: for inhibition at 10 µM: read-out: Percent inhibition of p38α MAPK at indicated concentration
JNK3 = JNK3 (Homo sapiens, UniProt P53779); assay: JNK3 enzyme-linked immunosorbent assay; assay type: biochemical
[1] = 2-methylaminothiazole versus 2-sulfanylimidazole (compound 5)

Sequence of JNK3 (P53779 whole entry): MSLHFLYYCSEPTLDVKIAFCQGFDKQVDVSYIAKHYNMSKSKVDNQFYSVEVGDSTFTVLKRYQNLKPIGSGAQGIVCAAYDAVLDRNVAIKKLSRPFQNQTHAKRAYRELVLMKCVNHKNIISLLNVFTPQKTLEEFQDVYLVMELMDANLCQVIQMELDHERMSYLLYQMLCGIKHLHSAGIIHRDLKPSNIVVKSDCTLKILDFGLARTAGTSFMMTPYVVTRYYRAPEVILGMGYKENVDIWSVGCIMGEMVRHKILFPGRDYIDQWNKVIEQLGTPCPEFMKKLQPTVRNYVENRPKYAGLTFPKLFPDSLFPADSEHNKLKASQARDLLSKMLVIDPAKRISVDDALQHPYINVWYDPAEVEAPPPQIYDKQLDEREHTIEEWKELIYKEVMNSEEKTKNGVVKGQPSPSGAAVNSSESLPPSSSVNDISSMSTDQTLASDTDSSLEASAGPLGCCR
Sequence of p38α MAPK (Q16539 whole entry): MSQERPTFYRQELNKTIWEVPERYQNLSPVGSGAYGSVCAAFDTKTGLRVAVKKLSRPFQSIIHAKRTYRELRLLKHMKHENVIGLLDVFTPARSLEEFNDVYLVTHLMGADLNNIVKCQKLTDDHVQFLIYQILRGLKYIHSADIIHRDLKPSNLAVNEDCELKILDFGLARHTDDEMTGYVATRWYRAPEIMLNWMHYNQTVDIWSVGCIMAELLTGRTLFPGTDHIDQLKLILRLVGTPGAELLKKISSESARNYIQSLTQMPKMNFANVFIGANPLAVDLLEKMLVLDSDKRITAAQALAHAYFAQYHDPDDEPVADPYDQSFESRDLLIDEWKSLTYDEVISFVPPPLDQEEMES

Compound | IC50 (p38α MAPK) [µM] | inhibition at 10 µM (p38α MAPK) [%] | IC50 (JNK3) [µM] | fold less active on JNK3 compared to N-methyl analogue 57 (JNK3) [fold] | fold increase in inhibitory activity for p38α MAPK (p38α MAPK; [1]) [fold] | fold increase in inhibitory activity for JNK3 (JNK3; [1]) [fold] | fold drop in potency on JNK3 versus parent compound 44 (JNK3) [fold]
CSc1nc(C)c(-c2ccnc(N[C@H]3CC[C@H](NC(C)=O)CC3)c2)[nH]1 [Compound 48i, N-(trans-4-((4-(4-Methyl-2-(methylthio)-1H-imidazol-5-yl)pyridin-2-yl)amino)cyclohexyl)acetamide] | > 10 | 37 | 0.819 ± 0.141 |  |  |  | 
CSc1nc(C)c(-c2ccnc(NC3CCCC3)c2)[nH]1 [Compound 48d, N-Cyclopentyl-4-(4-methyl-2-(methylthio)-1H-imidazol-5-yl)pyridin-2-amine] | > 10 | 47 | 1.57 |  |  |  | 
CNc1nc(-c2ccnc(Nc3ccc(N4CCOCC4)cc3)c2)c(C)s1 [Compound 78, N,5-Dimethyl-4-(2-((4-morpholinophenyl)amino)pyridin-4-yl)thiazol-2-amine] | > 10 | 9 | 2.5 |  |  |  | 
CSc1nc(C)c(-c2ccnc(NC3CCC3)c2)[nH]1 [Compound 48c, N-Cyclobutyl-4-(4-methyl-2-(methylthio)-1H-imidazol-5-yl)pyridin-2-amine] | > 10 | 36 | 3.04 |  |  |  | 
CSc1nc(C)c(-c2ccnc(Nc3ccc(N)cc3)c2)[nH]1 [Compound 48m, N1-(4-(4-Methyl-2-(methylthio)-1H-imidazol-5-yl)pyridin-2-yl)benzene-1,4-diamine] | > 10 | 38 | 0.353 ± 0.058 |  |  |  | 
CSc1nc(-c2ccc(F)cc2)c(-c2ccnc(Nc3ccc(N4CCOCC4)cc3)c2)[nH]1 [Compound 5, 4-(4-(4-Fluorophenyl)-2-(methylthio)-1H-imidazol-5-yl)-N-(4-morpholinophenyl)pyridin-2-amine] | 0.017 ± 0.001 |  | 0.038 ± 0.002 |  |  |  | 
Cc1[nH]c(N)nc1-c1ccnc(Nc2ccc(N3CCOCC3)cc2)c1 [Compound 47, 4-(2-Amino-5-methyl-1H-imidazol-4-yl)-N-(4-morpholinophenyl)pyridin-2-amine] | > 10 | 43 |  |  |  |  | 
c1cc(-c2[nH]cnc2C2CCC2)cc(Nc2ccc(N3CCOCC3)cc2)n1 [Compound 18i, 4-(4-Cyclobutyl-1H-imidazol-5-yl)-N-(4-morpholinophenyl)pyridin-2-amine] | 2.26 |  | 1.76 |  |  |  | 
CSc1nc(C)c(-c2ccnc(Nc3ccc(N4CCOCC4)cc3)c2)n1C1CC1 [Compound 59, 4-(1-Cyclopropyl-4-methyl-2-(methylthio)-1H-imidazol-5-yl)-N-(4-morpholinophenyl)pyridin-2-amine] | > 10 | 40 | 6.51 | ~3 |  |  | 
CSc1nc(C)c(-c2ccnc(NC3CCOCC3)c2)[nH]1 [Compound 48f, 4-(4-Methyl-2-(methylthio)-1H-imidazol-5-yl)-N-(tetrahydro-2H-pyran-4-yl)pyridin-2-amine] | > 10 | 27 |  |  |  |  | 
Cn1cncc1-c1ccnc(Nc2ccc(N3CCOCC3)cc2)c1 [Compound 67, 4-(1-Methyl-1H-imidazol-5-yl)-N-(4-morpholinophenyl)pyridin-2-amine] | > 10 | 32 | 0.714 ± 0.021 |  |  |  | 
CSc1nc(C)c(-c2ccnc(Nc3ccc(NC(C)=O)cc3)c2)[nH]1 [Compound 48n, N-(4-((4-(4-Methyl-2-(methylthio)-1H-imidazol-5-yl)pyridin-2-yl)amino)phenyl)acetamide] | > 10 | 32 | 0.415 ± 0.04 |  |  |  | 
O=c1[nH]c(-c2ccc(F)cc2)c(-c2ccnc(Nc3ccc(N4CCOCC4)cc3)c2)[nH]1 [Compound 8, 4-(4-Fluorophenyl)-5-(2-((4-morpholinophenyl)amino)pyridin-4-yl)-1,3-dihydro-2H-imidazol-2-one] | 0.034 ± 0.004 |  | 0.142 ± 0.028 |  |  |  | 
CSc1nc(C)c(-c2ccnc(Nc3ccc(NC(=O)C(C)(C)C)cc3)c2)[nH]1 [Compound 48q, N-(4-((4-(4-Methyl-2-(methylthio)-1H-imidazol-5-yl)pyridin-2-yl)amino)phenyl)pivalamide] | > 10 | 15 | 2.37 |  |  |  | 
CNc1nc(-c2ccc(F)cc2)c(-c2ccnc(Nc3ccc(N4CCOCC4)cc3)c2)s1 [Compound 75, 4-(4-Fluorophenyl)-N-methyl-5-(2-((4-morpholinophenyl)amino)pyridin-4-yl)thiazol-2-amine] | 0.002 |  | 0.015 ± 0.003 |  | 8 | 2.5 | 
Brc1ccccc1-c1nc[nH]c1-c1ccnc(Nc2ccc(N3CCOCC3)cc2)c1 [Compound 18c, 4-(4-(2-Bromophenyl)-1H-imidazol-5-yl)-N-(4-morpholinophenyl)pyridin-2-amine] | 0.061 ± 0.002 |  | 0.131 ± 0.021 |  |  |  | 
CSc1nc(C)c(-c2ccnc(N[C@H]3CC[C@H](N)CC3)c2)[nH]1 [Compound 48h, trans-N1-(4-(4-Methyl-2-(methylthio)-1H-imidazol-5-yl)pyridin-2-yl)cyclohexane-1,4-diamine] | > 10 | 46 | 0.941 ± 0.075 |  |  |  | 3
